Experimental data from patent US10206394B2, “Herbicidal compounds” (Syngenta Participations AG, priority 2014, dated 2019).
Where two headings read alike, the source gives them in different places.

Assays:
Test in all cases: Glasshouse assay for herbicidal activity (pre- and post-emergence), percentage phytotoxicity
Type in all cases: in vivo
[1] = tested on: Lolium perenne (LOLPE); details: Lolium perenne
How it was run: (§1)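 Sow seed in standard soil in pots; apply test herbicide after 1 day (PRE) or about 12 days (POST). Grow on in the glasshouse, watering twice daily, cool-season species at 20/16 °C and warm-season at 24/18 °C. Score visible damage (0–100%) at 20 or 15 DAA respectively.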

[2] = tested on: Echinochloa crus-galli (ECHCG); details: Echinochloa crus-galli
How it was run: as §1

[3] = tested on: Avena fatua (AVEFA); details: Avena fatua
How it was run: as §1

[4] = tested on: Alopecurus myosuroides (ALOMY); details: Alopecurus myosuroides
How it was run: as §1

[5] = post-emergence, 360 h, POST-emergence, rate 250 g/ha, visual score 15 DAA (100%=total damage, 0%=no damage), read-out: Post-emergence herbicidal activity (percentage phytotoxicity) LOLPE POST
[6] = pre-emergence, 480 h, PRE-emergence, rate 250 g/ha, visual score 20 DAA (100%=total damage, 0%=no damage), read-out: Pre-emergence herbicidal activity (percentage phytotoxicity) LOLPE PRE
[7] = post-emergence, 360 h, POST-emergence, rate 250 g/ha, visual score 15 DAA (100%=total damage, 0%=no damage), read-out: Post-emergence herbicidal activity (percentage phytotoxicity) ECHCG POST
[8] = pre-emergence, 480 h, PRE-emergence, rate 250 g/ha, visual score 20 DAA (100%=total damage, 0%=no damage), read-out: Pre-emergence herbicidal activity (percentage phytotoxicity) ECHCG PRE
[9] = post-emergence, 360 h, POST-emergence, rate 250 g/ha, visual score 15 DAA (100%=total damage, 0%=no damage), read-out: Post-emergence herbicidal activity (percentage phytotoxicity) AVEFA POST
[10] = pre-emergence, 480 h, PRE-emergence, rate 250 g/ha, visual score 20 DAA (100%=total damage, 0%=no damage), read-out: Pre-emergence herbicidal activity (percentage phytotoxicity) AVEFA PRE
[11] = post-emergence, 360 h, POST-emergence, rate 250 g/ha, visual score 15 DAA (100%=total damage, 0%=no damage), read-out: Post-emergence herbicidal activity (percentage phytotoxicity) ALOMY POST
[12] = pre-emergence, 480 h, PRE-emergence, rate 250 g/ha, visual score 20 DAA (100%=total damage, 0%=no damage), read-out: Pre-emergence herbicidal activity (percentage phytotoxicity) ALOMY PRE
[13] = post-emergence, 360 h, Rate 250 g/ha, post-emergence, visual assessment 15 DAA, 100%=total damage, 0%=no damage, read-out: Post-emergence herbicidal activity (percentage phytotoxicity) LOLPE POST
[14] = pre-emergence, 480 h, Rate 250 g/ha, pre-emergence, visual assessment 20 DAA, 100%=total damage, 0%=no damage, read-out: Pre-emergence herbicidal activity (percentage phytotoxicity) LOLPE PRE
[15] = post-emergence, 360 h, Rate 250 g/ha, post-emergence, visual assessment 15 DAA, 100%=total damage, 0%=no damage, read-out: Post-emergence herbicidal activity (percentage phytotoxicity) ECHCG POST
[16] = pre-emergence, 480 h, Rate 250 g/ha, pre-emergence, visual assessment 20 DAA, 100%=total damage, 0%=no damage, read-out: Pre-emergence herbicidal activity (percentage phytotoxicity) ECHCG PRE
[17] = post-emergence, 360 h, Rate 250 g/ha, post-emergence, visual assessment 15 DAA, 100%=total damage, 0%=no damage, read-out: Post-emergence herbicidal activity (percentage phytotoxicity) AVEFA POST
[18] = pre-emergence, 480 h, Rate 250 g/ha, pre-emergence, visual assessment 20 DAA, 100%=total damage, 0%=no damage, read-out: Pre-emergence herbicidal activity (percentage phytotoxicity) AVEFA PRE
[19] = post-emergence, 360 h, Rate 250 g/ha, post-emergence, visual assessment 15 DAA, 100%=total damage, 0%=no damage, read-out: Post-emergence herbicidal activity (percentage phytotoxicity) ALOMY POST
[20] = pre-emergence, 480 h, Rate 250 g/ha, pre-emergence, visual assessment 20 DAA, 100%=total damage, 0%=no damage, read-out: Pre-emergence herbicidal activity (percentage phytotoxicity) ALOMY PRE

With `Cc1cc(-c2ncc(Br)cn2)cc(C)c1C1C(=O)CC(CC(=O)NC(C)(C)C)C1=O` (stereo not drawn) [Compound B268] the pest or weed control at 250 g/ha [1, 5] was 100%, the pest or weed control at 250 g/ha [1, 6] was 100% and the pest or weed control at 250 g/ha [2, 7] was 100%. For the same compound, the pest or weed control at 250 g/ha [2, 8] was 100%, the pest or weed control at 250 g/ha [3, 9] was 100% and the pest or weed control at 250 g/ha [3, 10] was 90%. For the same compound, the pest or weed control at 250 g/ha [4, 11] was 90% and the pest or weed control at 250 g/ha [4, 12] was 100%.
Compound `CCc1cc(OCC(F)(F)F)cc(C)c1C1C(=O)CC(CC(=O)N(C)CC)C1=O` (stereo not drawn) [Compound B220] has a pest or weed control at 250 g/ha [1, 5] of 100%, a pest or weed control at 250 g/ha [1, 6] of 100% and a pest or weed control at 250 g/ha [2, 7] of 100%. The pest or weed control at 250 g/ha [2, 8] was 100%, the pest or weed control at 250 g/ha [3, 9] was 100% and the pest or weed control at 250 g/ha [3, 10] was 90%. It also gave a pest or weed control at 250 g/ha [4, 11] of 100% and a pest or weed control at 250 g/ha [4, 12] of 100%.
Compound `Cc1cc(-c2ccc(Cl)cn2)cc(C)c1C1C(=O)CC(CC(=O)NC/C=C/Cl)C1=O` (stereo not drawn) [Compound B372] has a pest or weed control at 250 g/ha [1, 13] of 90%, a pest or weed control at 250 g/ha [1, 14] of 100% and a pest or weed control at 250 g/ha [2, 15] of 100%. For the same compound, the pest or weed control at 250 g/ha [2, 16] was 100%, the pest or weed control at 250 g/ha [3, 17] was 100% and the pest or weed control at 250 g/ha [3, 18] was 100%. The pest or weed control at 250 g/ha [4, 19] was 90% and the pest or weed control at 250 g/ha [4, 20] was 90%.
`Cc1cc(C)c(C2C(=O)CC(CC(=O)NC(C)C3CC3)C2=O)c(C)c1` (stereo not drawn) [Compound B31] showed a pest or weed control at 250 g/ha ([1]; post-emergence, 360 h, 250 g/ha, post-emergence, 15 DAA, visual assessment (100%=total damage, 0%=no damage), read-out: Post-emergence herbicidal activity (percentage phytotoxicity) LOLPE POST) of 80%, a pest or weed control at 250 g/ha ([1]; pre-emergence, 480 h, 250 g/ha, pre-emergence, 20 DAA, visual assessment (100%=total damage, 0%=no damage), read-out: Pre-emergence herbicidal activity (percentage phytotoxicity) LOLPE PRE) of 90% and a pest or weed control at 250 g/ha ([2]; post-emergence, 360 h, 250 g/ha, post-emergence, 15 DAA, visual assessment (100%=total damage, 0%=no damage), read-out: Post-emergence herbicidal activity (percentage phytotoxicity) ECHCG POST) of 80%. It also gave a pest or weed control at 250 g/ha ([2]; pre-emergence, 480 h, 250 g/ha, pre-emergence, 20 DAA, visual assessment (100%=total damage, 0%=no damage), read-out: Pre-emergence herbicidal activity (percentage phytotoxicity) ECHCG PRE) of 90%, a pest or weed control at 250 g/ha ([3]; post-emergence, 360 h, 250 g/ha, post-emergence, 15 DAA, visual assessment (100%=total damage, 0%=no damage), read-out: Post-emergence herbicidal activity (percentage phytotoxicity) AVEFA POST) of 80% and a pest or weed control at 250 g/ha ([3]; pre-emergence, 480 h, 250 g/ha, pre-emergence, 20 DAA, visual assessment (100%=total damage, 0%=no damage), read-out: Pre-emergence herbicidal activity (percentage phytotoxicity) AVEFA PRE) of 70%. The pest or weed control at 250 g/ha ([4]; post-emergence, 360 h, 250 g/ha, post-emergence, 15 DAA, visual assessment (100%=total damage, 0%=no damage), read-out: Post-emergence herbicidal activity (percentage phytotoxicity) ALOMY POST) was 80% and the pest or weed control at 250 g/ha ([4]; pre-emergence, 480 h, 250 g/ha, pre-emergence, 20 DAA, visual assessment (100%=total damage, 0%=no damage), read-out: Pre-emergence herbicidal activity (percentage phytotoxicity) ALOMY PRE) was 100%.
`Cc1cc(-c2ccc(F)cc2)cc(C)c1C1C(=O)CC(CC(=O)NC(C)(C)C#N)C1=O` (stereo not drawn) [Compound B377] gave a pest or weed control at 250 g/ha [1, 13] of 30%, a pest or weed control at 250 g/ha [1, 14] of 80% and a pest or weed control at 250 g/ha [2, 15] of 90%. The pest or weed control at 250 g/ha [2, 16] was 100%, the pest or weed control at 250 g/ha [3, 17] was 100% and the pest or weed control at 250 g/ha [3, 18] was 90%. For the same compound, the pest or weed control at 250 g/ha [4, 19] was 90% and the pest or weed control at 250 g/ha [4, 20] was 90%.
`Cc1cc(C)c(C2C(=O)CC(CC(=O)NCc3ncc(C)s3)C2=O)c(C)c1` (stereo not drawn) [Compound A105] was tested, and the pest or weed control at 250 g/ha ([1]; post-emergence, 360 h, Rate 250 g/ha, post-emergence, assessed visually 15 DAA, 100%=total damage, 0%=no damage, read-out: Post-emergence herbicidal activity (percentage phytotoxicity) LOLPE POST) was 70%, the pest or weed control at 250 g/ha ([1]; pre-emergence, 480 h, Rate 250 g/ha, pre-emergence, assessed visually 20 DAA, 100%=total damage, 0%=no damage, read-out: Pre-emergence herbicidal activity (percentage phytotoxicity) LOLPE PRE) was 70% and the pest or weed control at 250 g/ha ([2]; post-emergence, 360 h, Rate 250 g/ha, post-emergence, assessed visually 15 DAA, 100%=total damage, 0%=no damage, read-out: Post-emergence herbicidal activity (percentage phytotoxicity) ECHCG POST) was 60%. It also gave a pest or weed control at 250 g/ha ([2]; pre-emergence, 480 h, Rate 250 g/ha, pre-emergence, assessed visually 20 DAA, 100%=total damage, 0%=no damage, read-out: Pre-emergence herbicidal activity (percentage phytotoxicity) ECHCG PRE) of 70%, a pest or weed control at 250 g/ha ([3]; post-emergence, 360 h, Rate 250 g/ha, post-emergence, assessed visually 15 DAA, 100%=total damage, 0%=no damage, read-out: Post-emergence herbicidal activity (percentage phytotoxicity) AVEFA POST) of 0% and a pest or weed control at 250 g/ha ([3]; pre-emergence, 480 h, Rate 250 g/ha, pre-emergence, assessed visually 20 DAA, 100%=total damage, 0%=no damage, read-out: Pre-emergence herbicidal activity (percentage phytotoxicity) AVEFA PRE) of 20%. It also gave a pest or weed control at 250 g/ha ([4]; post-emergence, 360 h, Rate 250 g/ha, post-emergence, assessed visually 15 DAA, 100%=total damage, 0%=no damage, read-out: Post-emergence herbicidal activity (percentage phytotoxicity) ALOMY POST) of 80% and a pest or weed control at 250 g/ha ([4]; pre-emergence, 480 h, Rate 250 g/ha, pre-emergence, assessed visually 20 DAA, 100%=total damage, 0%=no damage, read-out: Pre-emergence herbicidal activity (percentage phytotoxicity) ALOMY PRE) of 80%.
